Results taken from ChEMBL document CHEMBL1201862, “PubChem BioAssay data set” (2004).
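The compound was tested at five concentrations on cells cultured in 96-well plates, with a 48-hour exposure period. GI50 is the concentration that inhibits growth by half.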 Active and inactive are the calls of the source. Rule as the data show it: active = GI50 up to about 1.1 µM and inactive = higher.

Legend:
Experiment in all cases: inhibition of tumour cell growth, NCI panel, 48 h
UACC-62 = tested on: UACC-62
SW-620 = tested on: SW-620
LOX IMVI = tested on: LOX IMVI
UO-31 = tested on: UO-31
MCF7 = tested on: MCF7
SR = tested on: SR
ACHN = tested on: ACHN
SNB-19 = tested on: SNB-19
CAKI-1 = tested on: CAKI-1
DU-145 = tested on: DU-145
OVCAR-8 = tested on: OVCAR-8
NCI-H23 = tested on: NCI-H23
HOP-92 = tested on: HOP-92
SK-MEL-2 = tested on: SK-MEL-2
NCI-H522 = tested on: NCI-H522
SK-OV-3 = tested on: SK-OV-3
OVCAR-4 = tested on: OVCAR-4
HCT-15 = tested on: HCT-15
MOLT-4 = tested on: MOLT-4
OVCAR-3 = tested on: OVCAR-3

| Structure (SMILES) | GI50 (UACC-62) | GI50 (SW-620) | GI50 (LOX IMVI) | GI50 (UO-31) | GI50 (MCF7) | GI50 (SR) | GI50 (ACHN) | GI50 (SNB-19) | GI50 (CAKI-1) | GI50 (DU-145) | GI50 (OVCAR-8) | GI50 (NCI-H23) | GI50 (HOP-92) | GI50 (SK-MEL-2) | GI50 (NCI-H522) | GI50 (SK-OV-3) | GI50 (OVCAR-4) | GI50 (HCT-15) [µM] | GI50 (MOLT-4) | GI50 (OVCAR-3) |
| --- | --- | --- | --- | --- | --- | --- | --- | --- | --- | --- | --- | --- | --- | --- | --- | --- | --- | --- | --- | --- |
| COc1ccc2nc3cc([N+](=O)[O-])ccc3c(NNc3ccc([N+](=O)[O-])cc3)c2c1 | 3.37 µM (inactive) | 9.02 µM (inactive) | 61.1 µM (inactive) | 24.7 µM (inactive) | 4.01 µM (inactive) | 32.5 µM (inactive) | 46.9 µM (inactive) | 24 µM (inactive) | 0.818 µM (active) | 47.8 µM (inactive) | > 58.1 µM (inactive) | 28.4 µM (inactive) | 26.7 µM (inactive) | 27.6 µM (inactive) | 29.3 µM (inactive) | 98.4 µM (inactive) | 57.4 µM (inactive) | 55.8 | 25.5 µM (inactive) | 22.4 µM (inactive) |
| O=C(O)c1ccc(C(=O)O)c(C(=O)Nc2ccc3c(c2)C(=O)c2ccccc2-3)c1 | > 100 µM (inactive) | > 100 µM (inactive) | > 100 µM (inactive) | > 100 µM (inactive) | > 100 µM (inactive) | > 100 µM (inactive) | > 100 µM (inactive) | > 100 µM (inactive) | > 100 µM (inactive) | > 100 µM (inactive) | > 100 µM (inactive) | > 100 µM (inactive) | > 100 µM (inactive) | > 100 µM (inactive) | > 100 µM (inactive) | > 100 µM (inactive) | > 100 µM (inactive) | > 100 | > 100 µM (inactive) | > 100 µM (inactive) |
| CC(C)Cn1cnc2c(NCC(C)O)nc3ccccc3c21 (stereo not given) | 52.2 µM (inactive) | > 100 µM (inactive) | 42.6 µM (inactive) | 38.9 µM (inactive) | > 100 µM (inactive) | 84.5 µM (inactive) | 41.1 µM (inactive) | > 100 µM (inactive) | 66.4 µM (inactive) | 89.5 µM (inactive) | > 100 µM (inactive) | > 100 µM (inactive) | 27.9 µM (inactive) | > 100 µM (inactive) | > 100 µM (inactive) | > 100 µM (inactive) | > 100 µM (inactive) | 78.3 | 63.2 µM (inactive) | > 100 µM (inactive) |
| COc1ccc(N/N=C2\C3=C(CCC(C)(C)O3)C(=O)c3ccccc32)cc1 | 14.5 µM (inactive) | 34 µM (inactive) | 16.2 µM (inactive) | 18.1 µM (inactive) | 12.4 µM (inactive) | 12.6 µM (inactive) | 13.7 µM (inactive) | 21.9 µM (inactive) | 20 µM (inactive) | 25.2 µM (inactive) | 26.5 µM (inactive) | 18 µM (inactive) | 21.1 µM (inactive) | 21.8 µM (inactive) | 17 µM (inactive) | 37 µM (inactive) | 18.3 µM (inactive) | 13.7 | 18.1 µM (inactive) | 14.9 µM (inactive) |
| CCO/C=N/C1=C(C#N)SC2=N/C(=C\c3ccccc3)C(=O)N21 | > 100 µM (inactive) | > 100 µM (inactive) | > 100 µM (inactive) | > 100 µM (inactive) | > 100 µM (inactive) | 39.4 µM (inactive) | > 100 µM (inactive) | > 100 µM (inactive) | > 100 µM (inactive) | > 100 µM (inactive) | > 100 µM (inactive) | > 100 µM (inactive) | > 100 µM (inactive) | > 100 µM (inactive) | > 100 µM (inactive) | > 100 µM (inactive) | 57.9 µM (inactive) | > 100 | 31.7 µM (inactive) | > 100 µM (inactive) |
| O=S1(=O)c2cnccc2N=C(NCc2ccccc2)N1c1ccccc1 | 46.7 µM (inactive) | > 100 µM (inactive) | > 100 µM (inactive) | > 100 µM (inactive) | 54.5 µM (inactive) | 58.6 µM (inactive) | 36.7 µM (inactive) | > 100 µM (inactive) | > 100 µM (inactive) | 67.1 µM (inactive) | 78 µM (inactive) | 64.3 µM (inactive) | 57.5 µM (inactive) | 83.2 µM (inactive) | 42.1 µM (inactive) | > 100 µM (inactive) | > 100 µM (inactive) | 74.5 | 34.9 µM (inactive) | 45.7 µM (inactive) |
| CC(C)COP(=O)(OCC(C)C)C(NS(=O)(=O)c1ccccc1)(C(F)(F)F)C(F)(F)F | 4.81 µM (inactive) | 4.15 µM (inactive) | 3.57 µM (inactive) | 2.22 µM (inactive) | 7.57 µM (inactive) | 2.08 µM (inactive) | 2.99 µM (inactive) | 10.2 µM (inactive) | 5.52 µM (inactive) | 5.71 µM (inactive) | 6.46 µM (inactive) | 3.81 µM (inactive) | 2.2 µM (inactive) | 3.4 µM (inactive) | 4.05 µM (inactive) | 5.47 µM (inactive) | 3.4 µM (inactive) | 3.94 | 1.41 µM (inactive) | 4.82 µM (inactive) |
